For this assay, the system named is pituitaries removed from 20 day old female rats. Put plainly: In vitro growth hormone release study (incubated rat pituitaries, GH radioimmunoassay). Type of assay: cell-based. Conditions: two pituitaries in 1 ml lactated Ringer's, 36° C., ± SEM. On the procedure: Female rats of the CD-1 strain were housed in a constant temperature room at 24° C. with 14 hours light and 10 hours darkness. The rats were fed Purina brand rat chow ab libitum.
All studies were started between 0800 and 1000 hours.
Pituitaries were removed from 20 day old female rats. Two pituitaries were incubated at 36° C. in 1 ml of lactated Ringer's solution in 10 ml polytetrafluoroethylene beakers in a Dubnoff Shaker (90 cycles/min.). The pituitaries were incubated a total of 4 hours (P1, P2, I3, and I4). After two successive one hour preincubation periods (P1, P2), the peptide was added to the incubation medium hourly for 2 hours (I3, I4).
This in vitro study was performed in triplicate and a standard radioimmunoassay of growth hormone present in the incubation medium was performed in duplicate. The hormonal activity was calculated as the difference (Δ) of growth hormone (GH) levels between I3, I4 and P2, i.e., (I3 -P2) and (I4 -P2). P values were calculated by Students' t test using six growth hormone values for each value recorded.
The growth hormone radioimmunoassay reagents were distributed by the National Institute of Arthritis and […] (NIAMDD) program. The growth hormone values were calculated in terms of nanograms (ng) of a rat standard with a growth hormone potency of 0.61 units/mg.

Structures are written as SMILES. Non-standard residues stand in square brackets, D forms with d. Residues, ends and D or L forms follow the SMILES beside them.

As to `CSCC[C@H](NC(=O)[C@H](Cc1ccccc1)NC(=O)[C@@H](Cc1c[nH]c2ccccc12)NC(=O)[C@@H](Cc1c[nH]c2ccccc12)NC(=O)[C@@H](N)Cc1ccc(O)cc1)C(N)=O` [H2 N-Tyr-D-Trp-D-Trp-Phe-Met-CONH2] (H-Y[dW][dW]FM-NH2), the “In vitro growth hormone release (ΔGH, I3-P2 and I4-P2)” value is 1697 ± 222 ngΔGH/ml incubation medium (1μg peptide, P <0.001); 1530 ± 208 ngΔGH/ml incubation medium (20μg peptide, P <0.001); 219 ± 113 ngΔGH/ml incubation medium (100μg peptide, P ~0.02).

For the origin of these results see patent publication US4228158A, “Synthetic peptides having pituitary growth hormone releasing activity” (priority 1979, dated 1980).
